Assay results published in patent publication US20160282364A1, “ASSAY FOR INSULIN-DEGRADING ENZYME (IDE) INHIBITORS” (PRESIDENT AND FELLOWS OF HARVARD COLLEGE, priority 2013, published 2016).
Values joined by “and” are separate entries in the source; they are usually repeats but may differ in a detail not shown here. Identical values can stand only once. Like-named read-outs stand apart in the source and are kept apart here. Ends that are not written are not given here.

Legend:
IDE [1] = conditions: cited from earlier work; for Km / kcat / KM: IDE substrate; for Degradation: degradation kinetics compared to insulin
IDE [2] = experiment: Literature survey of IDE substrates, in vitro degradation kinetics; type: biochemical; conditions: KM estimated based on IC50 for inhibition of insulin degradation
IDE [3] = conditions: inhibition of insulin degradation, cited from earlier work
hIDE WT = molecular target: T1, hIDE WT (Homo sapiens, UniProt P14735); experiment: Small molecule-enzyme mutant complementation study, wild type; type: biochemical
T1 construct: The reported N-His6-tagged human IDE42-1019 construct; made in house; host or cells: E. coli Rosetta 2 (DE3) pLysS
Source text: (§1) Protease assays with fluorogenic peptide substrates. […] All assay data points were obtained in duplicate.
(§2) Site-directed mutagenesis, expression, and purification of human IDE. The reported N-His6-tagged human IDE42-1019 construct was introduced in the expression plasmid pTrcHis-A (Invitrogen) using primers for uracil-specific excision reactions (USER) by Taq (NEB) and Pfu polymerases (PfuTurbo CX®, Agilent). The IDE gene was amplified with the primers 5′-[…]-dU-[…] and 5′-[…] G-dU-[…] (underlined sequences represent overhangs, and italics highlight the PCR priming sequence). Similarly, the pTrcHis-A vector was amplified for USER cloning with the primers 5′-[…] TGA-dU-[…] CCC and 5′-[…]-dU-[…]. Mutant IDE constructs were generated by amplifying the full vector construct with USER cloning primers introducing a mutant overhang (Table 5).
(§3) All PCR products were purified on microcentrifuge membrane columns (MinElute®, Qiagen) and quantified by UV absorbance (NanoDrop). Each fragment (0.2 pmol) was combined in a 10 μL reaction mixture containing 20 units DpnI (NEB), 0.75 units of USER mix (Endonuclease VIII and Uracil-DNA Glycosylase, NEB), 20 mM Tris-acetate, 50 mM potassium acetate, 10 mM magnesium acetate, 1 mM dithiothreitol at pH 7.9 (1× NEBuffer 4). The reactions were incubated at 37° C. for 45 min, followed by heating to 80° C. and slow cooling to 30° C. (0.2° C./s). The hybridized constructs were directly used for heat-shock transformation of chemically competent NEB turbo E. coli cells according to the manufacturer's instructions. Transformants were selected on carbenicillin LB agar, and isolated colonies were cultured overnight in 2 mL LB.
(§4) The plasmid was extracted using a microcentrifuge membrane column kit (Miniprep®, Qiagen), and the sequence of genes and vector junctions were confirmed by Sanger sequencing (Table 6). The plasmid constructs were transformed by heat-shock into chemically-competent expression strain Rosetta 2 (DE3) pLysS E. coli cells (EMD Millipore), and selected on carbenicillin/chloramphenicol LB agar. Cells transformed with IDE pTrcHis A constructs were cultured overnight at 37° C. in 2 XYT media (31 g in 1 L) containing 100 μg/mL ampicillin and 34 μg/mL chloramphenicol. Expression of His6-tagged IDE proteins was induced when the culture measured OD600 ˜0.6 by addition of isopropyl-β-D-1-thiogalactopyranoside (IPTG) to 1 mM final concentration, incubated overnight at 37° C., followed by centrifugation at 10,000 g for 30 min at 4° C.
(§5) Recombinant His6-tagged proteins were purified by Ni(II)-affinity chromatography (IMAC sepharose beads, GE Healthcare®) according to the manufacturer's instructions. The cell pellets were resuspended in pH 8.0 buffer containing 50 mM phosphate, 300 mM NaCl, 10 mM imidazole, 1% Triton X-100 and 1 mM tris(2-carboxyethyl)phosphine hydrochloride (TCEP), and were lysed by probe sonication for 4 min at 4° C., followed by clearing of cell debris by centrifugation at 10,000 g for 25 min at 4° C. The supernatant was incubated with Ni(II)-doped IMAC resin (2 mL) for 3 h at 4° C. The resin was washed twice with the cell resuspension/lysis buffer, and three times with pH 8.0 buffer containing 50 mM phosphate, 300 mM NaCl,50 mM imidazole and 1 mM TCEP. Elution was performed in 2 mL aliquots by raising the imidazole concentration to 250 mM and subsequently to 500 mM in the previous buffer. The fractions were combined and the buffer was exchanged to the recommended IDE buffer (R&D) using spin columns with 100 KDa molecular weight cut off membranes (Millipore). Protein yields were typically ˜10 μg/L, and >90% purity based on gel electrophoresis analysis (Coomassie stained).

hIDE A198T = molecular target: T2, hIDE A198T (Homo sapiens, UniProt P14735, A198T); experiment: Small molecule-enzyme mutant complementation study; type: biochemical; conditions: A198T vs hIDE WT, batch 2
T2 construct: The reported N-His6-tagged human IDE42-1019 construct; made in house; host or cells: E. coli Rosetta 2 (DE3) pLysS
Source text: as §1, §2, §3, §4, §5

hIDE F202L = molecular target: T3, hIDE F202L (Homo sapiens, UniProt P14735, F202L); experiment: Small molecule-enzyme mutant complementation study; type: biochemical; conditions: F202L vs hIDE WT, batch 1
T3 construct: The reported N-His6-tagged human IDE42-1019 construct; made in house; host or cells: E. coli Rosetta 2 (DE3) pLysS
Source text: as §1, §2, §3, §4, §5

hIDE F202R = molecular target: T4, hIDE F202R (Homo sapiens, UniProt P14735, F202R); experiment: Small molecule-enzyme mutant complementation study; type: biochemical; conditions: F202R vs hIDE WT, batch 2
T4 construct: The reported N-His6-tagged human IDE42-1019 construct; made in house; host or cells: E. coli Rosetta 2 (DE3) pLysS
Source text: as §1, §2, §3, §4, §5

hIDE I310R = molecular target: T5, hIDE I310R (Homo sapiens, UniProt P14735, I310R); experiment: Small molecule-enzyme mutant complementation study; type: biochemical; conditions: I310R vs hIDE WT, batch 2
T5 construct: The reported N-His6-tagged human IDE42-1019 construct; made in house; host or cells: E. coli Rosetta 2 (DE3) pLysS
Source text: as §1, §2, §3, §4, §5

hIDE K364A = molecular target: T6, hIDE K364A (Homo sapiens, UniProt P14735, K364A); experiment: Small molecule-enzyme mutant complementation study; type: biochemical; conditions: K364A vs hIDE WT, batch 2
T6 construct: The reported N-His6-tagged human IDE42-1019 construct was introduced in the expression plasmid pTrcHis-A; made in house; host or cells: E. coli Rosetta 2 (DE3) pLysS
Source text: as §1, §2, §3, §4, §5

hIDE W199F = molecular target: T7, hIDE W199F (Homo sapiens, UniProt P14735, W199F); experiment: Small molecule-enzyme mutant complementation study; type: biochemical; conditions: W199F vs hIDE WT, batch 2
T7 construct: The reported N-His6-tagged human IDE42-1019 construct; made in house; host or cells: E. coli Rosetta 2 (DE3) pLysS
Source text: as §1, §2, §3, §4, §5

IDE [4] = molecular target: IDE (Homo sapiens, UniProt P14735); experiment: Protease assay with fluorogenic peptide substrate Mca-[…](Dnp)-OH (IDE species not given); type: biochemical; parameters: The proteases IDE42-1019, recombinant human IDE42-1019 (R&D Systems); conditions: heavy-labeled vs 6bK
Protocol: All data points and error bars represent mean±SEM. Significance tests were performed using two-tail Student's t-test, and significance levels shown in the figures are p<0.05 (*) or p<0.01 (**) versus the vehicle-only control group. The in vitro selection of the DNA-templated macrocycle libraryl^16,17 used 20 μg His6-tagged mouse IDE immobilized on cobalt magnetic beads (Dynabeads, Invitrogen). IDE proteolytic activity was assayed with fluorogenic peptide Mca-[…](Dnp)-OH (R&D). IDE inhibition was confirmed using an anti-insulin antibody time-resolved FRET assay (Cysbio), and using an LCMS assay for CGRP cleavage fragments CGRP1-17 and CGRP18-37 in plasma^18. […] Protease assays with fluorogenic peptide substrates. […] (R&D). All assay data points were obtained in duplicate.

T1 sequence (P14735 42-1019): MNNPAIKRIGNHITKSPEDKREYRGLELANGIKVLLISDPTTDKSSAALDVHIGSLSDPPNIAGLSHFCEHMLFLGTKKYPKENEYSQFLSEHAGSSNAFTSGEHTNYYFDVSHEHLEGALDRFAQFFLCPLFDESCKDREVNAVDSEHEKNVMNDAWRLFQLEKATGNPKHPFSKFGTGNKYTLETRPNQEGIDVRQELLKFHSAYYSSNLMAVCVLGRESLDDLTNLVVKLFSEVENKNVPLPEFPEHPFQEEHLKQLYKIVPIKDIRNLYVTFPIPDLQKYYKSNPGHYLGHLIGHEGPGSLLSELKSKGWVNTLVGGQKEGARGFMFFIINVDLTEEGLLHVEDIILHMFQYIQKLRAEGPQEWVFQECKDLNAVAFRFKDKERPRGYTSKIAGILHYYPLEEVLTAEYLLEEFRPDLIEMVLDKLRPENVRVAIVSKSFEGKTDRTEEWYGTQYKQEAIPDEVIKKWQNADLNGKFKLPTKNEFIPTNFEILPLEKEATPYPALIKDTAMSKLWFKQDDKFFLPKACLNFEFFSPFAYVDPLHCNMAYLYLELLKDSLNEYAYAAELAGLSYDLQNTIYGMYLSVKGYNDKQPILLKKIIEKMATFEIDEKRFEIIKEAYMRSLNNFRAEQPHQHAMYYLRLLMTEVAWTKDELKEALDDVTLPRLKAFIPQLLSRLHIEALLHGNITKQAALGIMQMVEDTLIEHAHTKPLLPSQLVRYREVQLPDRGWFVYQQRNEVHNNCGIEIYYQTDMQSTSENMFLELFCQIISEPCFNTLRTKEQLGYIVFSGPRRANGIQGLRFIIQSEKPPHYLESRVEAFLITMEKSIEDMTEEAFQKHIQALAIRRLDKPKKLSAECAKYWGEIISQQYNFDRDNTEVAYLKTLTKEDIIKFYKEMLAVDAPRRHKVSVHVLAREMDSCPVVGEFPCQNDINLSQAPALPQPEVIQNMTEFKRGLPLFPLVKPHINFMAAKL
T4 sequence (P14735 42-1019 F202R): as the sequence (P14735 42-1019) above, with F161R counted along it
Sequence of IDE (Homo sapiens, UniProt P14735) (P14735 42-1019): as the sequence (P14735 42-1019) above
T7 sequence (P14735 42-1019 W199F): as the sequence (P14735 42-1019) above, with W158F counted along it
T2 sequence (P14735 42-1019 A198T): as the sequence (P14735 42-1019) above, with A157T counted along it
T3 sequence (P14735 42-1019 F202L): as the sequence (P14735 42-1019) above, with F161L counted along it
T6 sequence (P14735 42-1019 K364A): as the sequence (P14735 42-1019) above, with K323A counted along it
T5 sequence (P14735 42-1019 I310R): as the sequence (P14735 42-1019) above, with I269R counted along it

Molecule | Km (IDE [1]) | kcat (IDE [1]) | Degradation (IDE [1]) | other results
pancreastatin (1-49) (SEALAVDGAGKPGAEEAQDPEGKGEQEHSQQKEEEEEMAVVPQGLFRGG; Pancreastatin; UniProt P10645 272-320, looked up, fragment) [IDE substrate in vitro] | 41.7 µM | 0.177 s⁻¹ | Slow | –
dynorphin A (1-13) (YGGFLRRIRPKLK; Dynorphin A(1-13); UniProt P01213 207-219, looked up) [IDE substrate in vitro] | 40.6 µM | 0.0623 s⁻¹ | – | –
bradykinin (RPPGFSPFR; Bradykinin; UniProt P01042 381-389, looked up) [IDE substrate in vitro] | 4.2 µM | – | Slow | –
relaxin-3 | – | – | Fast | Km (IDE [2]): 0.36 µM; IC50 (IDE [3]; read-out: IC50): 182 nM
CC(C)CC1NC(=O)C(CCC(N)=O)NC(=O)C=CC(=O)NC(C(N)=O)CCCCNC(=O)C(Cc2ccc(C(=O)c3ccccc3)cc2)NC1=O (centres unmarked) [Compound 13] | – | – | – | IC50 shift (hIDE WT; batch 1 (reference)): 1.0 fold; IC50 shift (hIDE WT; batch 2 (reference)): 1.0 fold; IC50 shift (hIDE WT; batch 3 (reference)): 1.0 fold; IC50 shift (hIDE A198T): 13.6 fold; IC50 shift (hIDE F202L): 2.3 fold; IC50 shift (hIDE F202R): 4.1 fold; IC50 shift (hIDE I310R): 0.7 fold; IC50 shift (hIDE K364A): 10.0 fold; IC50 shift (hIDE W199F): 3.2 fold
glucagon | 3.5 µM and 3.46 µM | 0.633 s⁻¹ and 0.642 s⁻¹ | Slow | IC50 (IDE [3]): weak
dynorphin A (1-10) | 39.4 µM | 0.0623 s⁻¹ | – | –
kallidin | 7.3 µM | – | Slow | –
insulin-like growth factor-2 [IGF-2] | – | – | Fast | Km (IDE [2]): 0.1 µM; IC50 (IDE [3]; read-out: IC50): 60 nM
dynorphin A (1-8) (YGGFLRRI; Dynorphin A(1-8); UniProt P01213 207-214, looked up) [IDE substrate in vitro] | 63.5 µM | 0.011 s⁻¹ | – | –
amylin (KCNTATCATQRLANFLVHSSNNFGAILSSTNVGSNTY; not fully specified (C-terminus, bridges); cysteine pairing not given here; UniProt P10997 34-70, looked up) [IDE substrate in vitro] | ~0.3 µM | – | Medium | Km (IDE [2]): 0.3 µM; IC50 (IDE [3]; read-out: IC50): 160 nM
atrial natriuretic peptide [atrial NP (ANP)] | 0.06 µM | – | Fast | –
B-type natriuretic peptide [B-type NP (BNP)] | – | – | Slow | KM (IDE [1]): weak; IC50 (IDE [3]; read-out: IC50): > 1000 nM
dynorphin A (1-17) | 37.4 µM | 0.307 s⁻¹ | – | –
CC(C)(C)c1ccc(CC2NC(=O)C(CC3CCCCC3)NC(=O)C(CCC(N)=O)NC(=O)C=CC(=O)NC(C(N)=O)CCCCNC2=O)cc1 (centres unmarked) [Compound 9] | – | – | – | IC50 shift (hIDE WT; batch 1 (reference)): 1.0 fold
insulin | < 0.03 µM | 0.0253 s⁻¹ | Fast | –
transforming growth factor-alpha [TGF-α] | – | – | Fast | Km (IDE [2]): 0.15 µM; IC50 (IDE [3]; read-out: IC50): 80 nM
NC(=O)C1CCCCNC(=O)C(Cc2ccc(C(=O)c3ccccc3)cc2)NC(=O)C(CC2CCCCC2)N[13C](=O)[13CH]([13CH2][13CH2][13CH2][13CH2][15NH2])[15NH]C(=O)C=CC(=O)N1 (centres unmarked) [heavy 6bK] | – | – | – | IC50 compared with 6bK (IDE [4]): identical
somatostatin-14 | 7.5 µM | 0.38 s⁻¹ | Slow | –
dynorphin B (1-13) | 18.3 µM | 0.252 s⁻¹ | – | –
growth hormone releasing factor (1-29) | 11.9 µM | 0.39 s⁻¹ | Slow | –
insulin-like growth factor-1 [IGF-1] | – | – | Slow | KM (IDE [1]): Weak
dynorphin B (1-9) (YGGFLRRQF; Rimorphin; UniProt P01213 226-234, looked up, fragment) [IDE substrate in vitro] | 26.8 µM | 0.172 s⁻¹ | – | –
dynorphin A (1-9) | 60.5 µM | 0.0055 s⁻¹ | – | –
relaxin | – | – | Fast | Km (IDE [2]): 0.11 µM; IC50 (IDE [3]; read-out: IC50): 54 nM
β-endorphin (1-31) | 13 µM | 0.35 s⁻¹ | Slow | –
amyloid-β peptide(40/42) [Aβ (40, 42)] | 1.23 µM | 0.867 s⁻¹ | Fast | –
